Measurements reported in patent publication US20250152585A1, “PHARMACEUTICAL COMPOUND” (Duke Street Bio Limited, priority 2022, published 2025).
Read-outs that look alike come from different tables or passages of the source.

How the values were obtained:
[1] = molecular target: T1, N-terminally FLAG-tagged PARP2 (amino acids 1-583) (Homo sapiens, UniProt Q9UGN5); experiment: PARP2 probe displacement HTRF assay; assay type: binding; details: binned Kd, PARP2 probe displacement HTRF
T1 construct: N-terminally FLAG-tagged PARP2 (amino acids 1-583)
Experimental: Data analysis was performed identical as for PARP1.

[2] = molecular target: T2, full length N-terminally FLAG-tagged PARP1 (Homo sapiens, UniProt P09874); experiment: PARP1 probe displacement HTRF assay; details: for Selectivity: PARP1 over PARP2, ratio Kd (PARP2)/Kd (PARP1), probe displacement HTRF; for Kd: binned Kd, PARP1 probe displacement HTRF
[3] = molecular target: T2, full length N-terminally FLAG-tagged PARP1; experiment: PARP1 biochemical DELFIA assay (auto-PARylation); set-up: recombinant full length human N-terminally FLAG-tagged PARP1; details: binned IC50, PARP1 biochemical DELFIA assay

T2 sequence (P09874 whole entry): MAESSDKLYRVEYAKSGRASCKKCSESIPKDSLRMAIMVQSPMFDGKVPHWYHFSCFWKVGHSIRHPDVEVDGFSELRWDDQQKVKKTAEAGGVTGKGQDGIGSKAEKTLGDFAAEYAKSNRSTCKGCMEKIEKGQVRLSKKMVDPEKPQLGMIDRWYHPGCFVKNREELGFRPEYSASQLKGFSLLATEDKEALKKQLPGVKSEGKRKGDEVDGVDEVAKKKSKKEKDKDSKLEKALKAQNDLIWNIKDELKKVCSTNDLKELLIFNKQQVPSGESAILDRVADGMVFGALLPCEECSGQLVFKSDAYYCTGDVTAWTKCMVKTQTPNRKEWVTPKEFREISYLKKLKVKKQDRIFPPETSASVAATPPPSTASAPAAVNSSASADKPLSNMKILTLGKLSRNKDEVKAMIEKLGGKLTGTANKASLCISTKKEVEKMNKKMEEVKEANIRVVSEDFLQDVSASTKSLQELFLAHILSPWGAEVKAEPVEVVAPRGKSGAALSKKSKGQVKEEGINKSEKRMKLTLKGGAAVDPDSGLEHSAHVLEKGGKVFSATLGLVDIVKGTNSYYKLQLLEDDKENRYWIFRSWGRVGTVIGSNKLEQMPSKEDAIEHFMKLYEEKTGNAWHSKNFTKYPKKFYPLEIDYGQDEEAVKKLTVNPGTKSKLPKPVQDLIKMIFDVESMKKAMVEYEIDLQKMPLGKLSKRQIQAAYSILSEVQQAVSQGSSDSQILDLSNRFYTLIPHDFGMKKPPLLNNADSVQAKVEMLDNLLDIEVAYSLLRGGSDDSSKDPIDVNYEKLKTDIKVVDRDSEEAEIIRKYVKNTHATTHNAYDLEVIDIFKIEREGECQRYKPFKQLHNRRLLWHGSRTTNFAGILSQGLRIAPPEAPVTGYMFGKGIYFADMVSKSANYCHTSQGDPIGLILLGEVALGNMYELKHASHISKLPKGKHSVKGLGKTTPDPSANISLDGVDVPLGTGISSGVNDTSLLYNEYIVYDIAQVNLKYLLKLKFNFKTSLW
T1 sequence (Q9UGN5 whole entry, the tested form may be a part): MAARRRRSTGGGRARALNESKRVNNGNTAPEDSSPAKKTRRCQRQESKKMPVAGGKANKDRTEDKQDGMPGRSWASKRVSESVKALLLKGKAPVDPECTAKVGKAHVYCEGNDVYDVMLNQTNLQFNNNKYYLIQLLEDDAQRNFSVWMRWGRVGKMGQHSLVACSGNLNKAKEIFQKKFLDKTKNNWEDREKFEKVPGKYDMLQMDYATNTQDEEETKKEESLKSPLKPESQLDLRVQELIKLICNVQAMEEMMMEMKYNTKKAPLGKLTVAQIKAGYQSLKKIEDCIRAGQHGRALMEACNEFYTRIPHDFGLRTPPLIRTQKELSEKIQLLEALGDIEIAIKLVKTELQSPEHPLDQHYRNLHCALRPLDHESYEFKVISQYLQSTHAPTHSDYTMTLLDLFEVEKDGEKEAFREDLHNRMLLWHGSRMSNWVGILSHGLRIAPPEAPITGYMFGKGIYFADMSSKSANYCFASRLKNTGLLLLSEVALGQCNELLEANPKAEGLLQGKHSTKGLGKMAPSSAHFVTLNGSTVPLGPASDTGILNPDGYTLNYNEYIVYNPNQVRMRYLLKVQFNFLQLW

SMILES | Kd [1] | Selectivity [2] | Kd ([2]; read-out: PARP1 HTRF) | IC50 [3] | Kd ([2]; PARP1 HTRF)
CNC(=O)c1ccc(N2CCC(N3CCCC(c4nc5c(Cl)cccc5c(=O)[nH]4)C3)CC2)cn1 (single isomer, unassigned) [Compound 44a] | > 10000 nM | +++ (+++ indicate a value of at least 100) | < 10 nM | < 10 nM | 
CNC(=O)c1ccc(N2CCC(N3CCCC(c4nc5c(Cl)cccc5c(=O)[nH]4)C3)CC2)cn1 (single isomer, unassigned) [Compound 44b] | 1000 to 10000 nM | + (+ indicates a value of 10 to less than 50) | 10 to 100 nM | 10 to 100 nM | 
CNC(=O)c1ccc(N2CCC(N3CCC(c4nc5ccccc5c(=O)[nH]4)C3)CC2)nc1 (single isomer, unassigned) [Compound 46a] | 1000 to 10000 nM | +++ (+++ indicate a value of at least 100) | 10 to 100 nM | < 10 nM | 
CNC(=O)c1ccc(N2CCC(N3CCC(c4nc5ccccc5c(=O)[nH]4)C3)CC2)nc1 (single isomer, unassigned) [Compound 46b] | 100 to 1000 nM | − (− indicates a value of less than 10) | 100 to 1000 nM | 100 to 1000 nM | 
CNC(=O)c1ccc(N2CCC(CN3CCC(c4nc5ccccc5c(=O)[nH]4)CC3)C2)cn1 (single isomer, unassigned) [Compound 50a] | 1000 to 10000 nM | + (+ indicates a value of 10 to less than 50) | 10 to 100 nM | 10 to 100 nM | 
CNC(=O)c1ccc(N2CCC(CN3CCC(c4nc5ccccc5c(=O)[nH]4)CC3)C2)cn1 (single isomer, unassigned) [Compound 50b] | > 10000 nM | +++ (+++ indicate a value of at least 100) | 10 to 100 nM | 10 to 100 nM | 
CNC(=O)c1ccc(N2CC(N3CCCC(Cc4nc5ccccc5c(=O)[nH]4)C3)C2)cn1 (single isomer, unassigned) [Compound 51a] | > 10000 nM | + (+ indicates a value of 10 to less than 50) | 100 to 1000 nM | 100 to 1000 nM | 
CNC(=O)c1ccc(N2CC(N3CCCC(Cc4nc5ccccc5c(=O)[nH]4)C3)C2)cn1 (single isomer, unassigned) [Compound 51b] | 1000 to 10000 nM | − (− indicates a value of less than 10) | 1000 to 10000 nM | 1000 to 10000 nM | 
CNC(=O)c1ccc(N2CCC(N3CCC(c4nc5c(Cl)cccc5c(=O)[nH]4)C3)CC2)cn1 (single isomer, unassigned) [Compound 52a, 5-(4-(3-(8-chloro-4-oxo-3,4-dihydroquinazolin-2-yl)pyrrolidin-1-yl)piperidin-1-yl)-N-methylpicolinamide] | 100 to 1000 nM | − (− indicates a value of less than 10) |  | 10 to 100 nM | 10 to 100 nM
CNC(=O)c1ccc(N2CCC(N3CCC(c4nc5c(Cl)cccc5c(=O)[nH]4)C3)CC2)cn1 (single isomer, unassigned) [Compound 52b, 5-(4-(3-(8-chloro-4-oxo-3,4-dihydroquinazolin-2-yl)pyrrolidin-1-yl)piperidin-1-yl)-N-methylpicolinamide] | 100 to 1000 nM | +++ (+++ indicate a value of at least 100) |  | < 10 nM | < 10 nM
CCc1ccc(C2CCCN(C3CCN(c4ccc(C(=O)NC)nc4)CC3)C2)[nH]c1=O (single isomer, unassigned) [Compound 53a, 5-{4-[3-(5-ethyl-6-oxo-1H-pyridin-2-yl)piperidin-1-yl]piperidin-1-yl}-N-methylpyridine-2-carboxamide] | 1000 to 10000 nM | +++ (+++ indicate a value of at least 100) |  | < 10 nM | < 10 nM
CCc1ccc(C2CCCN(C3CCN(c4ccc(C(=O)NC)nc4)CC3)C2)[nH]c1=O (single isomer, unassigned) [Compound 53b, 5-{4-[3-(5-ethyl-6-oxo-1H-pyridin-2-yl)piperidin-1-yl]piperidin-1-yl}-N-methylpyridine-2-carboxamide] | > 10000 nM | + (+ indicates a value of 10 to less than 50) |  | 100 to 1000 nM | 100 to 1000 nM
N#Cc1ccc(N2CCC(N3CCC(c4nc5ccccc5c(=O)[nH]4)C3)CC2)nc1 (single isomer, unassigned) [Compound 55a] | 1000 to 10000 nM | +++ (+++ indicate a value of at least 100) | < 10 nM | < 10 nM | 
N#Cc1ccc(N2CCC(N3CCC(c4nc5ccccc5c(=O)[nH]4)C3)CC2)nc1 (single isomer, unassigned) [Compound 55b] | 100 to 1000 nM | − (− indicates a value of less than 10) | 10 to 100 nM | 10 to 100 nM | 
CNC(=O)c1ccc(N2CCC(N3CCC(c4ncc(C(F)(F)F)c(=O)[nH]4)C3)CC2)cn1 (single isomer, unassigned) [Compound 56a] | > 10000 nM | ++ (++ indicates a value of 50 to less than 100) | 10 to 100 nM | 100 to 1000 nM | 
CNC(=O)c1ccc(N2CCC(N3CCC(c4ncc(C(F)(F)F)c(=O)[nH]4)C3)CC2)cn1 (single isomer, unassigned) [Compound 56b] | > 10000 nM | − (− indicates a value of less than 10) | 100 to 1000 nM | 1000 to 10000 nM | 

SMILES | Kd [1] | Selectivity [2] | Kd ([2]; read-out: PARP1 HTRF) | IC50 [3] | Kd ([2]; PARP1 HTRF)
CNC(=O)c1ccc(N2CCC(N3CCCC(Cc4nc5ccccc5c(=O)[nH]4)C3)CC2)cn1 (single isomer, unassigned) [Compound 57a] | > 10000 nM | +++ (+++ indicate a value of at least 100) | 10 to 100 nM | < 10 nM | 
CNC(=O)c1ccc(N2CCC(N3CCCC(Cc4nc5ccccc5c(=O)[nH]4)C3)CC2)cn1 (single isomer, unassigned) [Compound 57b] | > 10000 nM | + (+ indicates a value of 10 to less than 50) | 100 to 1000 nM | 100 to 1000 nM | 
CNC(=O)c1ccc(N2CCC(N3CCOC(c4nc5ccccc5c(=O)[nH]4)C3)CC2)cn1 (single isomer, unassigned) [Compound 58a] | > 10000 nM | +++ (+++ indicate a value of at least 100) | < 10 nM | < 10 nM | 
CNC(=O)c1ccc(N2CCC(N3CCOC(c4nc5ccccc5c(=O)[nH]4)C3)CC2)cn1 (single isomer, unassigned) [Compound 58b] | > 10000 nM | ++ (++ indicates a value of 50 to less than 100) | 10 to 100 nM | 10 to 100 nM | 
CNC(=O)c1ccc(N2CCC(N3CCC(c4nc5ncccc5c(=O)[nH]4)C3)CC2)cn1 (single isomer, unassigned) [Compound 60a] | > 10000 nM | +++ (+++ indicate a value of at least 100) | < 10 nM | < 10 nM | 
CNC(=O)c1ccc(N2CCC(N3CCC(c4nc5ncccc5c(=O)[nH]4)C3)CC2)cn1 (single isomer, unassigned) [Compound 60b] | > 10000 nM | ++ (++ indicates a value of 50 to less than 100) | 10 to 100 nM | 100 to 1000 nM | 
CNC(=O)c1ccc(N2CC(N3CCC(c4nc5ccccc5c(=O)[nH]4)C3)C2)cn1 (single isomer, unassigned) [Compound 61a] | 1000 to 10000 nM | + (+ indicates a value of 10 to less than 50) | 10 to 100 nM | 100 to 1000 nM | 
CNC(=O)c1ccc(N2CC(N3CCC(c4nc5ccccc5c(=O)[nH]4)C3)C2)cn1 (single isomer, unassigned) [Compound 61b] | 1000 to 10000 nM | +++ (+++ indicate a value of at least 100) | < 10 nM | < 10 nM | 
CNC(=O)c1ccc(OCCN2CCC(c3nc4ccccc4c(=O)[nH]3)C2)cn1 (single isomer, unassigned) [Compound 62a] | 1000 to 10000 nM | ++ (++ indicates a value of 50 to less than 100) | 10 to 100 nM | 10 to 100 nM | 
CNC(=O)c1ccc(OCCN2CCC(c3nc4ccccc4c(=O)[nH]3)C2)cn1 (single isomer, unassigned) [Compound 62b] | 1000 to 10000 nM | − (− indicates a value of less than 10) | 100 to 1000 nM | 100 to 1000 nM | 
CNC(=O)c1ccc(N2CCC(N3CCC(c4nc5ccc(F)cc5c(=O)[nH]4)C3)CC2)cn1 (single isomer, unassigned) [Compound 64a] | 100 to 1000 nM | + (+ indicates a value of 10 to less than 50) | < 10 nM | < 10 nM | 
CNC(=O)c1ccc(OCCN2CCCC(c3nc4ccccc4c(=O)[nH]3)C2)cn1 (single isomer, unassigned) [Compound 65a] | 100 to 1000 nM | +++ (+++ indicate a value of at least 100) | < 10 nM | < 10 nM | 
CNC(=O)c1ccc(OCCN2CCCC(c3nc4ccccc4c(=O)[nH]3)C2)cn1 (single isomer, unassigned) [Compound 65b] | 1000 to 10000 nM | + (+ indicates a value of 10 to less than 50) | 100 to 1000 nM | 100 to 1000 nM | 
CNC(=O)c1ccc(N2CCC(N3CCCC(C)(c4nc5ccccc5c(=O)[nH]4)C3)CC2)cn1 (single isomer, unassigned) [Compound 66a] | > 10000 nM | − (− indicates a value of less than 10) | 1000 to 10000 nM | 1000 to 10000 nM | 
CNC(=O)c1ccc(N2CCC(N3CCCC(C)(c4nc5ccccc5c(=O)[nH]4)C3)CC2)cn1 (single isomer, unassigned) [Compound 66b] | > 10000 nM | − (− indicates a value of less than 10) | 1000 to 10000 nM | 1000 to 10000 nM | 
